This is an account of results in US20100204203A1, “Chemical Compounds 637: Pyridopyrimidinediones as PDE4 Inhibitors” (priority 2007, published 2010).

The target of the assay is recombinant Human Phosphodiesterase B2 (PDE4B2) (Homo sapiens, UniProt Q07343). Nature of the assay: Human Phosphodiesterase B2 Radiometric Assay (yttrium silicate SPA beads, [3H]cyclic AMP). The settings on record: recombinant human PDE4B2, radiometric SPA assay, 8 nM [3H]cyclic AMP; read-out: PDE4B2 pIC50 (converted). Type of assay: biochemical. In short, it runs like this: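 Read-out is scintillation proximity: yttrium silicate beads (with 18 mM ZnSO4, added to stop the reaction) bind 5′AMP formed from 8 nM [3H]cAMP over 20 min. Beforehand, compound and 0.1 mg/mL enzyme were preincubated 30 min at 30 °C in pH 7.5 HEPES buffer with MgCl2, EGTA and Brij 35; pIC50 values were curve-fitted.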
Chain of recombinant Human Phosphodiesterase B2 (PDE4B2) (Q07343 1-564 isoform Q07343-2): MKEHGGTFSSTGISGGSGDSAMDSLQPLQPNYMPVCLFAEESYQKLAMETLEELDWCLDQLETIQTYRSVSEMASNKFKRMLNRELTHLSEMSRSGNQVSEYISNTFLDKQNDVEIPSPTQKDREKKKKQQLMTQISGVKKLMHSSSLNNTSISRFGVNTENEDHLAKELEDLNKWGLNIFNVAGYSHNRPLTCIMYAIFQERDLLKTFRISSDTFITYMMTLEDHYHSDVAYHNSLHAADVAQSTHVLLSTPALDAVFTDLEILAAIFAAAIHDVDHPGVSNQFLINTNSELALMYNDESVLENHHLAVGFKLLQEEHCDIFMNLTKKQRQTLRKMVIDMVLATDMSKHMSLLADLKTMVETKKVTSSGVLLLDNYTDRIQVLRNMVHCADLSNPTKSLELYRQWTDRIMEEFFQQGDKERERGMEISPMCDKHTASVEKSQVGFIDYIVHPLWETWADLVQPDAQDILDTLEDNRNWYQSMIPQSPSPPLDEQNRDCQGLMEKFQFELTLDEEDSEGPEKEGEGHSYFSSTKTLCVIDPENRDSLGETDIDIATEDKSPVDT

As to `CC(C)NC(=O)CN1CCN(Cc2ccc(-c3cccc(-n4c(=O)n([C@H]5CC[C@@H](NC(=O)c6cn7c(n6)CCCC7)CC5)c(=O)c5cc(F)cnc54)c3)cc2)CC1` [Example 219, N-{cis-4-[6-fluoro-1-[4′-({4-[2-(isopropylamino)-2-oxoethyl]piperazin-1-yl}methyl)biphenyl-3-yl]-2,4-dioxo-1,4-dihydropyrido[2,3-d]pyrimidin-3(2H)-yl]cyclohexyl}-5,6,7,8-tetrahydroimidazo[1,2-a]pyridine-2-carboxamide], the IC50 was 5.01 pM. The value for `Cc1cccc2nc(C(=O)N[C@H]3CC[C@@H](n4c(=O)c5cc(F)cnc5n(-c5cccc(-c6ccc(CN7CCCN(C)CC7)cc6)c5)c4=O)CC3)cn12` [Example 220, N-{cis-4-[6-fluoro-1-{4′-[(4-methyl-1,4-diazepan-1-yl)methyl]biphenyl-3-yl}-2,4-dioxo-1,4-dihydropyrido[2,3-d]pyrimidin-3(2H)-yl]cyclohexyl}-5-methylimidazo[1,2-a]pyridine-2-carboxamide] was 7.94 pM. The figure for `O=C(N[C@H]1CC[C@@H](n2c(=O)c3cc(F)cnc3n(-c3cccc(-c4ccc(CN5CCN(C6CCCC6)CC5)cc4)c3)c2=O)CC1)c1cn2c(n1)CCCC2` [Example 221, N-{cis-4-[1-{4′-[(4-cyclopentylpiperazin-1-yl)methyl]biphenyl-3-yl}-6-fluoro-2,4-dioxo-1,4-dihydropyrido[2,3-d]pyrimidin-3(2H)-yl]cyclohexyl}-5,6,7,8-tetrahydroimidazo[1,2-a]pyridine-2-carboxamide] is 10 pM; for `O=C(N[C@H]1CC[C@@H](n2c(=O)c3cc(F)cnc3n(-c3cccc(-c4ccc(CN5CCCN(CCO)CC5)cc4)c3)c2=O)CC1)c1cn2c(n1)CCCC2` [Example 222, N-{cis-4-[6-fluoro-1-(4′-{[4-(2-hydroxyethyl)-1,4-diazepan-1-yl]methyl}biphenyl-3-yl)-2,4-dioxo-1,4-dihydropyrido[2,3-d]pyrimidin-3(2H)-yl]cyclohexyl}-5,6,7,8-tetrahydroimidazo[1,2-a]pyridine-2-carboxamide] it is 6.31 pM. The figure for `O=C(N[C@H]1CC[C@@H](n2c(=O)c3cc(F)cnc3n(-c3cccc(-c4ccc(CN5CCC(N6CCCCC6)CC5)cc4)c3)c2=O)CC1)c1cn2c(n1)CCCC2` [Example 223, N-{cis-4-[1-[4′-(1,4′-bipiperidin-1′-ylmethyl)biphenyl-3-yl]-6-fluoro-2,4-dioxo-1,4-dihydropyrido[2,3-d]pyrimidin-3(2H)-yl]cyclohexyl}-5,6,7,8-tetrahydroimidazo[1,2-a]pyridine-2-carboxamide] is 10 pM; for `O=C(N[C@H]1CC[C@@H](n2c(=O)c3cc(F)cnc3n(-c3cccc(-c4ccc(CN5CCCOCC5)cc4)c3)c2=O)CC1)c1cn2c(n1)CCCC2` [Example 224, N-{cis-4-[6-fluoro-1-[4′-(1,4-oxazepan-4-ylmethyl)biphenyl-3-yl]-2,4-dioxo-1,4-dihydropyrido[2,3-d]pyrimidin-3(2H)-yl]cyclohexyl}-5,6,7,8-tetrahydroimidazo[1,2-a]pyridine-2-carboxamide] it is 10 pM. Consider `CCN(CC)CCN(C)Cc1ccc(-c2cccc(-n3c(=O)n([C@H]4CC[C@@H](NC(=O)c5cn6c(n5)CCCC6)CC4)c(=O)c4cc(F)cnc43)c2)cc1` [Example 225, N-{cis-4-[1-(4′-{[[2-(diethylamino)ethyl](methyl)amino]methyl}biphenyl-3-yl)-6-fluoro-2,4-dioxo-1,4-dihydropyrido[2,3-d]pyrimidin-3(2H)-yl]cyclohexyl}-5,6,7,8-tetrahydroimidazo[1,2-a]pyridine-2-carboxamide], for which the IC50 was 15.8 pM.

Consider `O=C(N[C@H]1CC[C@@H](n2c(=O)c3cc(F)cnc3n(-c3cccc(-c4ccc(CN5CCC[C@H]5CO)cc4)c3)c2=O)CC1)c1cn2c(n1)CCCC2` [Example 226, N-{cis-4-[6-fluoro-1-(4′-{[(2S)-2-(hydroxymethyl)pyrrolidin-1-yl]methyl}biphenyl-3-yl)-2,4-dioxo-1,4-dihydropyrido[2,3-d]pyrimidin-3(2H)-yl]cyclohexyl}-5,6,7,8-tetrahydroimidazo[1,2-a]pyridine-2-carboxamide], for which the IC50 is 50.1 pM. The figure for `CCCN1CCN(Cc2ccc(-c3cccc(-n4c(=O)n([C@H]5CC[C@@H](NC(=O)c6cn7c(n6)CCCC7)CC5)c(=O)c5cc(F)cnc54)c3)cc2)CC1` [Example 227, N-{cis-4-[6-fluoro-2,4-dioxo-1-{4′-[(4-propylpiperazin-1-yl)methyl]biphenyl-3-yl}-1,4-dihydropyrido[2,3-d]pyrimidin-3(2H)-yl]cyclohexyl}-5,6,7,8-tetrahydroimidazo[1,2-a]pyridine-2-carboxamide] is 7.94 pM; for `Cc1cc(C(=O)N[C@H]2CC[C@@H](n3c(=O)c4cc(F)cnc4n(-c4cccc(-c5ccc(CN6CCNCC6)cc5)c4)c3=O)CC2)nn1C` [Example 228, N-{cis-4-[6-fluoro-2,4-dioxo-1-[4′-(piperazin-1-ylmethyl)biphenyl-3-yl]-1,4-dihydropyrido[2,3-d]pyrimidin-3(2H)-yl]cyclohexyl}-1,5-dimethyl-1H-pyrazole-3-carboxamide] it is 25.1 pM. Consider `O=C(N[C@H]1CC[C@@H](n2c(=O)c3cc(F)cnc3n(-c3cccc(-c4ccc(CN5CCNCC5)cc4Br)c3)c2=O)CC1)c1cn2cc(F)ccc2n1` [Example 229, N-{cis-4-[1-[2′-Bromo-4′-(piperazin-1-ylmethyl)biphenyl-3-yl]-6-fluoro-2,4-dioxo-1,4-dihydropyrido[2,3-d]pyrimidin-3(2H)-yl]cyclohexyl}-6-fluoroimidazo[1,2-a]pyridine-2-carboxamide], for which the IC50 was 6.31 pM. The figure for `Cc1cc(-c2ccc(CN3CCNCC3)cc2)cc(-n2c(=O)n([C@H]3CC[C@@H](NC(=O)c4cn5cc(F)ccc5n4)CC3)c(=O)c3cc(F)cnc32)c1` [Example 230, 6-Fluoro-N-{cis-4-[6-fluoro-1-[5-methyl-4′-(piperazin-1-ylmethyl)biphenyl-3-yl]-2,4-dioxo-1,4-dihydropyrido[2,3-d]pyrimidin-3 (2H)-yl]cyclohexyl}imidazo[1,2-a]pyridine-2-carboxamide] is 31.6 pM. The value for `CNCCNCc1ccc(-c2cc(C)cc(-n3c(=O)n([C@H]4CC[C@@H](NC(=O)c5cn6cc(F)ccc6n5)CC4)c(=O)c4cc(F)cnc43)c2)cc1` [Example 231] was 126 pM; that for `CC(=O)N[C@H]1CC[C@@H](n2c(=O)c3cc(F)cnc3n(-c3cccc(-c4ccc(CN5CCN(C(C)C)CC5)cc4)c3)c2=O)CC1` [Example 232, N-{cis-4-[6-Fluoro-1-{4′-[(4-isopropylpiperazin-1-yl)methyl]biphenyl-3-yl}-2,4-dioxo-1,4-dihydropyrido[2,3-d]pyrimidin-3(2H)-yl]cyclohexyl}acetamide] was 251 pM. The value for `CC(C)N1CCN(Cc2ccc(-c3cccc(-n4c(=O)n([C@H]5CC[C@@H](NC(=O)C6CC6)CC5)c(=O)c5cc(F)cnc54)c3)cc2)CC1` [Example 233, N-{cis-4-[6-fluoro-1-{4′-[(4-isopropylpiperazin-1-yl)methyl]biphenyl-3-yl}-2,4-dioxo-1,4-di-hydropyrido[2,3-d]pyrimidin-3(2H)-yl]cyclohexyl}cyclo-propanecarboxamide] was 50.1 pM; that for `CC(C)N1CCN(Cc2ccc(-c3cccc(-n4c(=O)n([C@H]5CC[C@@H](NC(=O)CC6CCOCC6)CC5)c(=O)c5cc(F)cnc54)c3)cc2)CC1` [Example 234, N-{cis-4-[6-fluoro-1-{4′-[(4-isopropylpiperazin-1-yl)methyl]biphenyl-3-yl}-2,4-dioxo-1,4-di-hydropyrido[2,3-d]pyrimidin-3(2H)-yl]cyclohexyl}-2-(tetrahydro-2H-pyran-4-yl)acetamide] was 100 pM. Regarding `Cc1n[nH]cc1C(=O)N[C@H]1CC[C@@H](n2c(=O)c3cc(F)cnc3n(-c3cccc(-c4ccc(CN5CCN(C(C)C)CC5)cc4)c3)c2=O)CC1` [Example 235, N-{cis-4-[6-fluoro-1-{4′-[(4-isopropylpiperazin-1-yl)methyl]biphenyl-3-yl}-2,4-dioxo-1,4-di-hydropyrido[2,3-d]pyrimidin-3(2H)-yl]cyclohexyl}-3-methyl-1H-pyrazole-4-carboxamide], the IC50 was 126 pM. Regarding `CC(C)N1CCN(Cc2ccc(-c3cccc(-n4c(=O)n([C@H]5CC[C@@H](NC(=O)C6CCCC6)CC5)c(=O)c5cc(F)cnc54)c3)cc2)CC1` [Example 236, N-{cis-4-[6-fluoro-1-{4′-[(4-isopropylpiperazin-1-yl)methyl]biphenyl-3-yl}-2,4-dioxo-1,4-di-hydropyrido[2,3-d]pyrimidin-3(2H)-yl]cyclohexyl}cyclo-pentanecarboxamide], the IC50 is 126 pM.

As for `CC(C)N1CCN(Cc2ccc(-c3cccc(-n4c(=O)n([C@H]5CC[C@@H](NC(=O)CN6CCCCC6)CC5)c(=O)c5cc(F)cnc54)c3)cc2)CC1` [Example 237, N-{cis-4-[6-fluoro-1-{4′-[(4-isopropylpiperazin-1-yl)methyl]biphenyl-3-yl}-2,4-dioxo-1,4-di-hydropyrido[2,3-d]pyrimidin-3(2H)-yl]cyclohexyl}-2-piperidin-1-ylacetamide], the IC50 was 39.8 pM. The value for `CC(C)C(=O)N[C@H]1CC[C@@H](n2c(=O)c3cc(F)cnc3n(-c3cccc(-c4ccc(CN5CCN(C(C)C)CC5)cc4)c3)c2=O)CC1` [Example 238, N-{cis-4-[6-fluoro-1-{4′-[(4-isopropylpiperazin-1-yl)methyl]biphenyl-3-yl}-2,4-dioxo-1,4-di-hydropyrido[2,3-d]pyrimidin-3(2H)-yl]cyclohexyl}-2-methyl-propanamide] was 200 pM.

For `CC(C)N1CCN(Cc2ccc(-c3cccc(-n4c(=O)n([C@H]5CC[C@@H](NC(=O)c6nccn6C)CC5)c(=O)c5cc(F)cnc54)c3)cc2)CC1` [Example 239, N-{cis-4-[6-fluoro-1-{4′-[(4-isopropylpiperazin-1-yl)methyl]biphenyl-3-yl}-2,4-dioxo-1,4-di-hydropyrido[2,3-d]pyrimidin-3(2H)-yl]cyclohexyl}-1-methyl-1H-imidazole-2-carboxamide], the IC50 was 316 pM.
